# Patent US9879303B2, “Chromogenic glucuronidase substrates and uses” (Glycosynth Limited, priority 2013, dated 2018)
# Where a name gives a salt, the structure may show the parent alone.
# System: E. coli clinical isolates
# Assay: screen of strains in broth medium containing FAC
# Assay type: cell-based
# Design: key to colour: Red, Green, Black or Purple mean strong colour; Red, Green, Black or Purple mean strong colour; Red, Green, Black or Purple mean strong colour; Red, Green, Black or Purple mean strong colour; +/− means less colour than strong; Tr means a trace of colour, less than +/−; — means no colour
# Conditions: for colour: 37° C. 18 hours
# Excerpt: In order to obtain a fuller picture of the sensitivity of the substrates, they were screened with 100 different clinical isolates of E. coli in a liquid medium containing FAC. The isolates were chosen at random from the Microbiology Department, Freeman Hospital, Newcastle Upon Tyne, UK. The effectiveness of the new substrates was compared with three other media which all contained indoxyl-β-D-glucuronides. One was a commercial medium, CPS ID 3 (bioMérieux SA, Lyon, France). […] This medium was employed as a control. Among the β-D-glucuronidase producing strains of E. coli there is a large variation in the quantity of the enzyme produced and it is almost certain that the CPS ID 3 medium has been rigorously optimised to allow good growth of all the target organisms and maximum expression of the target enzymes. Therefore, two indoxyl glucuronides, X-β-D-glucuronide CHA salt and Rose-β-D-glucuronide CHA salt were also tested in a simple agar medium to allow a direct comparison of the sensitivity of these Indoxyl glucuronides when used in a medium that has not been optimised for the growth of the target organism. The comparison of the results for Rose-β-D-glucuronide and the CPS ID 3 medium was of particular significance as the commercial medium also uses Rose-β-D-glucuronide for the detection of E. coli. For consistency, the four glucuronides were all chosen as their CHA salts. As already stated, it is not anticipated that the salt form is critical to their performance. Currently. X-β-D-glucuronide is often used as either the CHA salt or the sodium salt. Brenner and colleagues [K. P. Brenner et al, Appl. Environ. Microbiol., 59, 3534-3544, (1993)] found no difference in the performance of the CHA and sodium salt forms with their application using indoxyl-β-D-glucuronide, neither in respect of colour development nor in the recovery of E. coli.
# The two indoxyl glucuronides used produce insoluble endpoints following hydrolysis, as does the CPS ID 3 medium. It was therefore necessary to test these two substrates on agar plates. In contrast, catechol-β-D-glucuronide (1) and DHN-β-D-glucuronide (2b) give much more soluble endpoints best suited to liquid media and were therefore tested in a broth medium. Each broth was prepared using proteose peptone (Oxoid, Basingstoke, UK) (2 g), NaCl (1 g) and FAC (100 mg) in DI water (180 mL). This mixture was autoclaved and cooled to room temperature before being dispensed into bijoux (100×1.8 mL). Catechol β-D-glucuronide CHA salt (1) or DHN-β-D-glucuronide CHA salt (2b) (60 mg) were each dissolved in water (20 mL) and filtered to sterilize before being aseptically dispensed into successive bijoux (0.2 mL) containing the broth solution. The broth/substrate solutions were then inoculated with bacterial suspensions made up to 0.5 McFarland standard (2 μL per bijoux). X-β-D-glucuronide CHA salt (Glycosynth Ltd, Warrington, UK) (10 mg) was dissolved in NMP (200 μL). Rose-β-D-glucuronide CHA salt (Glycosynth Ltd, Warrington, UK) (20 mg) was dissolved in NMP (200 μL). These solutions were then added to Columbia agar (Oxoid, Basingstoke, UK) (100 mL) and inoculated with bacterial suspensions made up to 0.5 McFarland standard (1 μL). The plates and broths were incubated at 37° C. for 18 hours in air.
# [1] = 100 E. coli strains after 18 h incubation, broth
smiles,measurement,setting,value
"O=C(O)C1OC(Oc2ccccc2O)C(O)C(O)C1O [Compound 1, Catechol β-D-Glucuronide CHA Salt]",% Sensitivity,[1],83%
same,Negative strains,[1],17
same,Positive strains,[1],83
same,colour,"E. coli 260262P, broth",Black
same,colour,"E. coli 260280Z, broth",Black
same,colour,"E. coli 260310H, broth",Black
same,colour,"E. coli 260313A, broth",—
same,colour,"E. coli 260316T, broth",—
same,colour,"E. coli 260327V, broth",Black
same,colour,"E. coli 260330Y, broth",Black
same,colour,"E. coli 260333P, broth",—
same,colour,"E. coli 260345F, broth",Black
same,colour,"E. coli 260348K, broth",Black
same,colour,"E. coli 260354W, broth",Black
same,colour,"E. coli 260364H, broth",Black
same,colour,"E. coli 260370C, broth",Black
same,colour,"E. coli 260375E, broth",Black
same,colour,"E. coli 260390B, broth",—
same,colour,"E. coli 260396Z, broth",Black
same,colour,"E. coli 260398Q, broth",Black
same,colour,"E. coli 260400N, broth",—
same,colour,"E. coli 260401Q, broth",Black
same,colour,"E. coli 260402H, broth",Black
same,colour,"E. coli 260404W, broth",Black
same,colour,"E. coli 260405P, broth",Black
same,colour,"E. coli 260406A, broth",—
same,colour,"E. coli 260406Y, broth",Black
same,colour,"E. coli 260407F, broth",Black
same,colour,"E. coli 260408C, broth",Black
same,colour,"E. coli 260411Z, broth",Black
same,colour,"E. coli 260412Q, broth",Black
same,colour,"E. coli 260414H, broth",Black
same,colour,"E. coli 260415Y, broth",Black
same,colour,"E. coli 260416W, broth",Black
same,colour,"E. coli 260417P, broth",Black
same,colour,"E. coli 260422Y, broth",Black
same,colour,"E. coli 260424P, broth",Black
same,colour,"E. coli 260425A, broth",Black
same,colour,"E. coli 260426F, broth",Black
same,colour,"E. coli 260428T, broth",Black
same,colour,"E. coli 260431N, broth",Black
same,colour,"E. coli 260432E, broth",Black
same,colour,"E. coli 260433H, broth",Black
same,colour,"E. coli 260434Y, broth",Black
same,colour,"E. coli 260435W, broth",Black
same,colour,"E. coli 260436P, broth",Black
same,colour,"E. coli 260437A, broth",—
same,colour,"E. coli 260438F, broth",Black
same,colour,"E. coli 260439C, broth",Black
same,colour,"E. coli 260440S, broth",Black
same,colour,"E. coli 260441G, broth",Black
same,colour,"E. coli 260458Y, broth",Black
same,colour,"E. coli 260459W, broth",Black
same,colour,"E. coli 260463D, broth",Black
same,colour,"E. coli 260464G, broth",Black
same,colour,"E. coli 260471B, broth",—
same,colour,"E. coli 260478N, broth",—
same,colour,"E. coli 260479Q, broth",Black
same,colour,"E. coli 260480M, broth",Black
same,colour,"E. coli 260481J, broth",Black
same,colour,"E. coli 260483R, broth",—
same,colour,"E. coli 260485D, broth",Black
same,colour,"E. coli 260486L, broth",Black
same,colour,"E. coli 260492J, broth",Black
same,colour,"E. coli 260494B, broth",Black
same,colour,"E. coli 260495R, broth",Black
same,colour,"E. coli 260497D, broth",Black
same,colour,"E. coli 260502G, broth",Black
same,colour,"E. coli 260503Z, broth",Black
same,colour,"E. coli 260504N, broth",Black
same,colour,"E. coli 260505Q, broth",—
same,colour,"E. coli 260506E, broth",Black
same,colour,"E. coli 260508Y, broth",Black
same,colour,"E. coli 260509W, broth",Black
same,colour,"E. coli 260510R, broth",Black
same,colour,"E. coli 260511X, broth",Black
same,colour,"E. coli 260514G, broth",—
same,colour,"E. coli 260515Z, broth",Black
same,colour,"E. coli 260521S, broth",Black
same,colour,"E. coli 260522Z, broth",Black
same,colour,"E. coli 260532S, broth",Black
same,colour,"E. coli 260533G, broth",Black
same,colour,"E. coli 260536Q, broth",Black
same,colour,"E. coli 260537E, broth",—
same,colour,"E. coli 260538H, broth",—
same,colour,"E. coli 260539Y, broth",Black
same,colour,"E. coli 260541R, broth",Black
same,colour,"E. coli 260545G, broth",Black
same,colour,"E. coli 260547N, broth",Black
same,colour,"E. coli 260548Q, broth",Black
same,colour,"E. coli 260549E, broth",Black
same,colour,"E. coli 260553X, broth",—
same,colour,"E. coli 260554D, broth",Black
same,colour,"E. coli 260555L, broth",Black
same,colour,"E. coli 260563B, broth",Black
same,colour,"E. coli 260564R, broth",Black
same,colour,"E. coli 260578D, broth",—
same,colour,"E. coli 2603121P, broth",—
same,colour,"E. coli 2604399E, broth",Black
same,colour,"E. coli O157 non-toxigenic, broth",—
same,colour of positive solutions,"broth with FAC, in words","greyish-black solutions, sometimes with black flakes"
